Measurements published in ChEMBL document CHEMBL5705903, “A DNA Hypomethylation Signature Predicts Antitumor Activity of LSD1 Inhibitors in SCLC” (Cancer Cell, 2015).
The source made the active and inactive calls. The rule behind the calls is not given here.

Experiments:
[1] = AUC (0 to infinity) in mouse at 5.5 mg/kg, ip by HPLC/MS/MS analysis; type: ADME, organism-based; details: in vivo
[2] = Cmax in mouse at 5.5 mg/kg, ip by HPLC/MS/MS analysis; type: ADME, organism-based; details: in vivo
[3] = Effect on cleaved PARP level in human NCI-H1694 cells assessed as relative expression at 100 nM measured after 14 days by Western blot analysis (reference value: 0.25); type: functional; details: time 14 day
[4] = Toxicity in rat assessed as multifocal hemorrhage in organs measured for 28 days; details: in vivo, 672 h, time 28 day
SHP77 = assay: Effect on NCAM gene expression in human SHP77 cells at 1 uM measured after 4 days by qRT-PCR analysis; type: functional, cell-based; details: time 4.0 day
[5] = Effect on cleaved PARP level in human NCI-H69 cells assessed as fold change at 10 nM measured after 14 days by Western blot analysis (reference value: 1.00); type: functional; details: time 14 day
[6] = Effect on cleaved PARP level in human NCI-H146 cells assessed as relative expression at 100 nM measured after 10 days by Western blot analysis (reference value: 0.27); type: functional; details: time 10 day
[7] = Effect on cleaved PARP level in human NCI-H526 cells assessed as fold change at 100 nM measured after 14 days by Western blot analysis (reference value: 1.00); type: functional; details: time 14 day
[8] = AUC (0 to last) in mouse blood at 5 mg/kg, po by HPLC/MS/MS analysis; type: ADME, organism-based
[9] = Effect on cleaved PARP level in human NCI-H526 cells assessed as relative expression at 10 nM measured after 10 days by Western blot analysis (reference value: 0.81); type: functional; details: time 10 day
[10] = Effect on cleaved PARP level in human COLO-668 cells assessed as relative expression at 10 nM measured after 7 days by Western blot analysis (reference value: […]); type: functional; details: time 7 day
NCI-H146 = assay: Effect on NSE gene expression in human NCI-H146 cells at 1 uM measured after 4 to 7 days by qRT-PCR analysis; type: functional, cell-based; details: time 4-7 day
[11] = Effect on cleaved PARP level in human NCI-H146 cells assessed as fold change at 100 nM measured after 10 days by Western blot analysis (reference value: 1.00); type: functional; details: time 10 day
[12] = Effect on cleaved PARP level in human NCI-H1417 cells assessed as relative expression at 1000 nM measured after 10 days by Western blot analysis (reference value: 0.19); type: functional; details: time 10 day
[13] = Effect on cleaved PARP level in human NCI-H510 cells assessed as fold change at 1000 nM measured after 14 days by Western blot analysis (reference value: 1.00); type: functional, NCI-H510A; details: time 14 day
[14] = Effect on cleaved PARP level in human NCI-H889 cells assessed as relative expression at 1000 nM measured after 7 days by Western blot analysis (reference value: 0.34); type: functional; details: time 7 day
[15] = Effect on cleaved PARP level in human NCI-H889 cells assessed as relative expression at 100 nM measured after 14 days by Western blot analysis (reference value: 0.94); type: functional; details: time 14 day
[16] = Effect on cleaved PARP level in human NCI-H510 cells assessed as fold change at 100 nM measured after 14 days by Western blot analysis (reference value: 1.00); type: functional, NCI-H510A; details: time 14 day
[17] = Effect on cleaved PARP level in human NCI-H889 cells assessed as fold change at 10 nM measured after 10 days by Western blot analysis (reference value: 1.00); type: functional; details: time 10 day
[18] = Effect on cleaved PARP level in human NCI-H69 cells assessed as fold change at 100 nM measured after 10 days by Western blot analysis (reference value: 1.00); type: functional; details: time 10 day
NCI-H1417 = assay: Effect on cell cycle in human NCI-H1417 cells assessed as cell accumulation at […] phase upto 1000 nM measured for 7 to 14 days by flow cytometry; type: functional, cell-based; details: time 7-14 day
[19] = Effect on cleaved PARP level in human NCI-H1694 cells assessed as relative expression at 1000 nM measured after 14 days by Western blot analysis (reference value: 0.25); type: functional; details: time 14 day
[20] = Toxicity in rat assessed as morbidity measured for 28 days; details: in vivo, 672 h, time 28 day
[21] = Effect on cleaved PARP level in human NCI-H2171 cells assessed as fold change at 100 nM measured after 14 days by Western blot analysis (reference value: 1.00); type: functional; details: time 14 day
[22] = Effect on cleaved PARP level in human NCI-H146 cells assessed as relative expression at 1000 nM measured after 10 days by Western blot analysis (reference value: 0.27); type: functional; details: time 10 day
[23] = Effect on cleaved PARP level in human NCI-H69 cells assessed as relative expression at 10 nM measured after 7 days by Western blot analysis (reference value: 0.02); type: functional; details: time 7 day
[24] = Effect on cleaved PARP level in human COLO-668 cells assessed as relative expression at 100 nM measured after 14 days by Western blot analysis (reference value: 3.50); type: functional; details: time 14 day
[25] = Toxicity in dog assessed as declining clinical condition measured for 28 days; parameters: species or system Canis lupus familiaris; details: in vivo, 672 h, time 28 day
[26] = Effect on cleaved PARP level in human NCI-H1694 cells assessed as fold change at 100 nM measured after 14 days by Western blot analysis (reference value: 1.00); type: functional; details: time 14 day
[27] = Effect on cleaved PARP level in human NCI-H1417 cells assessed as fold change at 10 nM measured after 10 days by Western blot analysis (reference value: 1.00); type: functional; details: time 10 day
[28] = Effect on cleaved PARP level in human NCI-H1694 cells assessed as fold change at 100 nM measured after 10 days by Western blot analysis (reference value: 1.00); type: functional; details: time 10 day
NCI-H526 [29] = assay: In vivo inhibition of LSD1 in human NCI-H526 cells xenografted in nude mouse assessed as change in KIAA1644 gene expression measured after 24 hrs post single administration by qRT-PCR analysis; type: functional, organism-based; details: dose 0.06-135 mg/kg
NCI-H526 [30] = assay: In vivo inhibition of LSD1 in human NCI-H526 cells xenografted in nude mouse assessed as change in FEZ1 gene expression measured after 24 hrs post single administration by qRT-PCR analysis; type: functional, organism-based; details: dose 0.06-135 mg/kg
D-amino-acid oxidase = D-amino-acid oxidase (Homo sapiens, UniProt P14920); assay: Binding affinity to D-amino acid oxidase (unknown origin) assessed as apparent inhibition constant; details: read-out: Ki(app)
[31] = Effect on cleaved PARP level in human NCI-H146 cells assessed as relative expression at 100 nM measured after 7 days by Western blot analysis (reference value: […]); type: functional; details: time 7 day
[32] = Effect on cleaved PARP level in human NCI-H146 cells assessed as fold change at 1000 nM measured after 7 days by Western blot analysis (reference value: 1.00); type: functional; details: time 7 day
[33] = Effect on cleaved PARP level in human NCI-H146 cells assessed as fold change at 1000 nM measured after 10 days by Western blot analysis (reference value: 1.00); type: functional; details: time 10 day
[34] = Effect on cleaved PARP level in human NCI-H1694 cells assessed as fold change at 1000 nM measured after 10 days by Western blot analysis (reference value: 1.00); type: functional; details: time 10 day

Sequence of D-amino-acid oxidase (P14920 whole entry): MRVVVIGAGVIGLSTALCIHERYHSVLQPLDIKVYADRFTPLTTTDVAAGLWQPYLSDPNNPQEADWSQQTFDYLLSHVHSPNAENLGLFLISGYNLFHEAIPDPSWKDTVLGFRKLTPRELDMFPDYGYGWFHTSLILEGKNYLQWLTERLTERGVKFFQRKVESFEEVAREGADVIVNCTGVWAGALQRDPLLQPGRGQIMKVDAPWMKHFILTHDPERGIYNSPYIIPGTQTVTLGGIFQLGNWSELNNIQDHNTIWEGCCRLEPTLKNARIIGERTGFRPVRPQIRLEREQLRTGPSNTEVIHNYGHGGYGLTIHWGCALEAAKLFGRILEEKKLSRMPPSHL

Structure (SMILES): c1ccc([C@@H]2C[C@H]2NC2CCNCC2)cc1
- AUC(0-inf) [1]: 938 ng·h/mL
- Cmax [2]: 466 ng/mL

Structure (SMILES): O=C(O)c1ccc(CN2CCC(CN[C@@H]3C[C@H]3c3ccccc3)CC2)cc1 [GSK2879552]
- Activity [3]: 0.23
- Activity [4]: Toxic
- Activity (SHP77): inactive
- fold change (FC) [5]: 1.66
- Activity [6]: 0.25
- fold change (FC) [7]: 1.41
- AUC(0-t) [8]: 853 ng·h/mL
- Activity [9]: 0.46
- Activity [10]: 1.07
- Activity (NCI-H146): inactive
- fold change (FC) [11]: 0.94
- Activity [12]: 0.4
- fold change (FC) [13]: 2.61
- Activity [14]: 0.66
- Activity [15]: 2.36
- fold change (FC) [16]: 2.92
- fold change (FC) [17]: 1.68
- fold change (FC) [18]: 1.62
- Activity (NCI-H1417): inactive
- Activity [19]: 0.21
- Activity [20]: Toxic
- fold change (FC) [21]: 1.8
- Activity [22]: 0.24
- Activity [23]: 0.02
- Activity [24]: 0.89
- Activity [25]: Toxic
- fold change (FC) [26]: 0.89
- fold change (FC) [27]: 1.44
- fold change (FC) [28]: 0.75
- inhibition (NCI-H526 [29]): Dose-Dependent Effect
- inhibition (NCI-H526 [30]): Dose-Dependent Effect
- Ki (D-amino-acid oxidase): 520 µM
- Activity [31]: 2.21
- fold change (FC) [32]: 1.12
- fold change (FC) [33]: 0.89
- fold change (FC) [34]: 0.71
